The source of these data is patent US20250320202A1, “PRMT5 INHIBITOR, PREPARATION METHOD THEREFOR, AND PHARMACEUTICAL USE THEREOF” (Abbisko Therapeutics Co., Ltd., priority 2022, published 2025).

The assay relates to HCT116 MTAP knockout cells. Description: Human colon cancer HCT116 cell proliferation inhibition test (CellTiter-Glo, 6 days), MTAP knockout cells. The assay is classed as cell-based. Conditions: HCT-116, 144 h. The protocol:
1. HCT116 MTAP knockout and MTAP wild-type cells were plated in 96-well flat bottom plates, and cultured overnight with McCoy's 5A medium containing 10% fetal bovine serum+1% penicillin-streptomycin at 37° C. and 5% CO2.
2. On the next day, the compound was dissolved with DMSO, diluted with DMSO and medium successively and transferred to the cell plate. The final concentration of the compound was 10 μM, the compound was diluted 4 times, with 9 concentration gradients, and DMSO control was added.
3. Cells that have not been treated with the compound were removed. CellTiter-Glo Luminescent Cell Viability Assay (Promega) was used to detect cell viability, the operation was performed with reference to the package insert of the kit, and then the cell plate was placed on EnVision Multilabel Reader to detect the cold light signal.
4. Meanwhile, the cell plate treated with the compound was cultured at 37° C. and 5% CO2 for 6 consecutive days.
5. Then, CellTiter-Glo was also used to detect cell viability.
6. Finally, the four-parameter dose-response curve module of GraphPad Prism v 9.2.0 software was used to plot the dose-response curve and calculate the IC50 for proliferation inhibition (unit: nM).
In general terms: Cellular ATP, detected with luciferase, serves as a proxy for viable cell number.

Structures are written as SMILES.

Usually IC50 stands for the concentration at which inhibition is half-maximal. A lower IC50 goes with greater potency in that assay. On to `Nc1nc2ccc(C(=O)N(CC3CC3)[C@H]3CCc4nc(C(F)(F)F)ccc43)cc2c2cnccc12` [Example 1, (S)-5-amino-N-(cyclopropylmethyl)-N-(2-(trifluoromethyl)-6,7-dihydro-5H-cyclopenta[b]pyridin-5-yl)benzo[c][2,6]naphthyridin-9-carboxamide], for which the midpoint of inhibition, the IC50, lay at 0.792 µM.

`Cn1ncc2c(N)nc3cc(F)c(C(=O)N(Cc4ncccn4)C4CCc5cc(C(F)(F)F)ccc54)cc3c21` (centres unmarked) [Example 7, 4-amino-7-fluoro-1-methyl-N-(pyrimidin-2-ylmethyl)-N-(5-(trifluoromethyl)-2,3-dihydro-1H-inden-1-yl)-1H-pyrazol[4,3-c]quinolin-8-carboxamide]: the IC50 stood at 0.057 µM.

Take `Cn1cc(N(C(=O)c2cc3c(cc2F)nc(N)c2cnn(C)c23)C2CCc3cc(C(F)(F)F)ccc32)cn1` (centres unmarked) [Example 8, 4-amino-7-fluoro-1-methyl-N-(1-methyl-1H-pyrazol-4-yl)-N-(5-(trifluoromethyl)-2,3-dihydro-1H-inden-1-yl)-1H-pyrazolo[4,3-c]quinolin-8-carboxamide]: inhibition was half-maximal at 0.004 µM (IC50).

On to `Cn1ncc2c(N)nc3cc(F)c(C(=O)N(Cc4cscn4)C4CCc5cc(C(F)(F)F)ccc54)cc3c21` (centres unmarked) [Example 95, 4-amino-7-fluoro-1-methyl-N-(thiazol-4-ylmethyl)-N-(5-(trifluoromethyl)-2,3-dihydro-1H-inden-1-yl)-1H-pyrazolo[4,3-c]quinolin-8-carboxamide], for which the half-inhibitory concentration (IC50) was found to be 0.052 µM.

Take `Nc1nc2ccc(C(=O)N(CC3CC3)C3CCc4nc(C(F)(F)F)ccc43)cc2c2cnccc12` (centres unmarked) [Example 110, 5-amino-N-(cyclopropylmethyl)-N-(2-(trifluoromethyl)-6,7-dihydro-5H-cyclopenta[b]pyridin-5-yl)benzo[c][2,6]naphthyridin-9-carboxamide]: half-maximal inhibition (IC50) required 0.116 µM.

With `Nc1nc2ccc(C(=O)N(CC3CC3)C3COc4nc(C(F)(F)F)ccc43)cc2c2cnccc12` (centres unmarked) [Example 111, 5-amino-N-(cyclopropylmethyl)-N-(6-(trifluoromethyl)-2,3-dihydrofuro[2,3-b]pyridin-3-yl)benzo[c][2,6]naphthyridin-9-carboxamide], half-maximal inhibition (IC50) required 0.115 µM.

Turning to `Cn1ncc2c(N)nc3cc(F)c(C(=O)N(c4cscn4)C4CCc5cc(C(F)(F)F)ccc54)cc3c21` (centres unmarked) [Example 152, 4-amino-7-fluoro-1-methyl-N-(thiazol-4-yl)-N-(5-(trifluoromethyl)-2,3-dihydro-1H-inden-1-yl)-1H-pyrazolo[4,3-c]quinolin-8-carboxamide], the 50% inhibitory concentration (IC50) is 0.004 µM.

With `Cn1ncc2c(N)nc3cc(F)c(C(=O)N(CC(F)(F)F)C4COc5cc(C(F)(F)F)ccc54)cc3c21` (centres unmarked) [Example 157, 4-amino-7-fluoro-1-methyl-N-(2,2,2-trifluoroethyl)-N-(6-(trifluoromethyl)-2,3-dihydrobenzofuran-3-yl)-1H-pyrazolo[4,3-c]quinolin-8-carboxamide], half-maximal inhibition (IC50) was put at 0.139 µM.

`Nc1nc2ccc(C(=O)N(c3ncns3)[C@@H]3CCc4cc(C(F)(F)F)ccc43)cc2c2cnccc12` [Example 191, (R)-5-amino-N-(1,2,4-thiadiazol-5-yl)-N-(5-(trifluoromethyl)-2,3-dihydro-1H-inden-1-yl)benzo[c][2,6]naphthyridin-9-carboxamide] showed an IC50 of 2.9 µM.

`Nc1nc2ccc(C(=O)N(CC3CC3)[C@H]3COc4nc(C(F)(F)F)ccc43)cc2c2cnccc12` [Example 196, (R)-5-amino-N-(cyclopropylmethyl)-N-(6-(trifluoromethyl)-2,3-dihydrofuro[2,3-b]pyridin-3-yl)benzo[c][2,6]naphthyridin-9-carboxamide] yielded a concentration for half-maximal inhibition (IC50) of 1.53 µM.

On to `Nc1nc2ccc(C(=O)N(CC3CC3)[C@@H]3CCc4nc(C(F)(F)F)ccc43)cc2c2cnccc12` [Example 199, (R)-5-amino-N-(cyclopropylmethyl)-N-(2-(trifluoromethyl)-6,7-dihydro-5H-cyclopenta[b]pyridin-5-yl)benzo[c][2,6]naphthyridin-9-carboxamide], for which the IC50 was found to be 0.134 µM.
